The values that follow come from patent US10323016B2, “Imidazol- or 1,2,4-triazol-derivatives and their use” (UNIVERSITE DE LILLE 2 DROIT ET SANTE, priority 2014, dated 2019).

In one test the target is mTGR5 (Mus musculus (Mouse), UniProt Q80SS6). The test is described as follows: TGR5/CRE Luciferase Assay (mTGR5). The format is cell-based. The conditions noted are these: for EC50: HEK 293 cells transiently co-transfected with pCMV AC6-TGR5m and pCRE TA-Luciferase reporter, overnight incubation; for mTGR5 % trans: HEK 293 luciferase reporter, percentage of the 10 μM LCA value. Here is the method: (§1) TGR5/CRE Luciferase Assay
Chain of mTGR5 (Q80SS6 whole entry): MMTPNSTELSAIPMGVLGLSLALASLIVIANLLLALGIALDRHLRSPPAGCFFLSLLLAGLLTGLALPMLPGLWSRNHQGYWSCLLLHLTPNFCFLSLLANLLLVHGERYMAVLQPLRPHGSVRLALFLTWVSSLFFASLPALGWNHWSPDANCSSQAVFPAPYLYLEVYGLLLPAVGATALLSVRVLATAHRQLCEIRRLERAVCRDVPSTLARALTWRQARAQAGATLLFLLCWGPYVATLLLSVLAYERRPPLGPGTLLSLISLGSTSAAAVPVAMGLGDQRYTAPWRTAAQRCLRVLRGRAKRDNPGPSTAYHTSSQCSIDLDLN
(§2) In the following tables TGR5 activation by compounds and subsequent increase in intracellular cAMP were evaluated using a luciferase reporter gene assay. Human embryonic kidney (HEK) 293 cells were transiently co-transfected with pCMV tag4b-TGR5 h (to follow hTGR5 activation) or pCMV AC6-TGR5m (to follow mTGR5 activation) expression plasmids and the pCRE TA-Luciferase reporter plasmid using the JET PEI reagent (Polyplus transfection). Transfected cells were seeded in 96-well plates and incubated overnight with the test compounds at increasing concentrations tested in duplicate. Lithocolic acid (LCA) at 10 μM was used as a positive reference compound. The cAMP-dependent luciferase expression was followed using the BrightGlo reagent according to the manufacturer (Promega) instructions. Luminescence was read with a Mithras plate reader (Berthold). […] Concentration-response curves were fitted by a nonlinear regression analysis to a 4 parameter logistic equation.
(In general: A reporter such as luciferase makes a cellular process visible.)

For another test, the target named is hTGR5 (Homo sapiens (Human), UniProt Q8TDU6). The test is described as follows: TGR5/CRE Luciferase Assay (hTGR5). It counts as cell-based. The conditions noted are these: for EC50: HEK 293 cells transiently co-transfected with pCMV tag4b-TGR5h and pCRE TA-Luciferase reporter, overnight incubation; for hTGR5 % trans: HEK 293 luciferase reporter, percentage of the 10 μM LCA value. Here is the method:
as §1, §2

Chain of hTGR5 (Q8TDU6 whole entry): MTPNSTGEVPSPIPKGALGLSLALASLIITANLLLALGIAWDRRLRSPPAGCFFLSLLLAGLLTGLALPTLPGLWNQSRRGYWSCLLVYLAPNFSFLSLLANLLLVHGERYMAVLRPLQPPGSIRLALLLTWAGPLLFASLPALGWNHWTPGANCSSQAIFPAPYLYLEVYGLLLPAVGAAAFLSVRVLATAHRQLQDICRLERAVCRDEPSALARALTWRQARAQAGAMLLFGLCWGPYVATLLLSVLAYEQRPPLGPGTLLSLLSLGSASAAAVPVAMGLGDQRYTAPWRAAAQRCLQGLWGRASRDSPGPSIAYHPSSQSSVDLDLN

The EC50 is the concentration that produces a half-maximal response. Read a low EC50 as a more potent agent. On mTGR5, “[2-[2,6-Difluoro-4-(2-methoxy-polyethyleneglycoxy)-benzylsulfanyl]-3-(4-fluoro-phenyl)-3H-imidazol-4-yl]-(3,4-dimethoxy-phenyl)-methyl-amine [Example 9]” yielded an EC50 of 0.018 µM and a mTGR5 % trans of 98%. At hTGR5, this substance returned an EC50 of 0.16 µM and a hTGR5 % trans of 85%.
The like results for “[2-[2,6-Difluoro-4-(2-methoxy-polyethyleneglycoxy)-benzylsulfanyl]-3-(4-fluorophenyl)-3H-imidazol-4-yl]-(3,4-dimethoxy-phenyl)-methyl-amine [Example 24]” were, in that order, 0.068 µM, 126%, 1.2 µM and 71%.
The like results for “[2-[2,6-Difluoro-4-(2-methoxy-polyethyleneglycoxy)-benzylsulfanyl]-3-(4-fluoro-3-methoxy-phenyl)-3H-imidazol-4-yl]-(3,4-dimethoxy-phenyl)-methyl-amine [Example 23]” were, in that order, 0.026 µM, 108%, 0.33 µM and 103%.
The corresponding values for “[2-[2,6-Difluoro-4-(2-methoxy-polyethyleneglycoxy)-benzylsulfanyl]-3-(4-fluoro-phenyl)-3H-imidazol-4-yl]-(3,4-dimethoxy-phenyl)-methyl-amine [Example 22]” are 0.029 µM, 85%, 0.58 µM and 60%.
